Among the data in patent US9650339B2, “Inhibitors of histone demethylases” (Gilead Sciences, Inc., priority 2013, dated 2017) are IC50 and EC50 values, retold here.

The structures appear in SMILES notation. Where only a bound is given, the exact number is not on record here.

One assay deals with T1, KDM4B (JMJD2B) (Homo sapiens, UniProt O94953).
T1 construct: 2-500; purchased BPS; host or cells: Bac (baculovirus system)
T1 sequence (O94953 2-500): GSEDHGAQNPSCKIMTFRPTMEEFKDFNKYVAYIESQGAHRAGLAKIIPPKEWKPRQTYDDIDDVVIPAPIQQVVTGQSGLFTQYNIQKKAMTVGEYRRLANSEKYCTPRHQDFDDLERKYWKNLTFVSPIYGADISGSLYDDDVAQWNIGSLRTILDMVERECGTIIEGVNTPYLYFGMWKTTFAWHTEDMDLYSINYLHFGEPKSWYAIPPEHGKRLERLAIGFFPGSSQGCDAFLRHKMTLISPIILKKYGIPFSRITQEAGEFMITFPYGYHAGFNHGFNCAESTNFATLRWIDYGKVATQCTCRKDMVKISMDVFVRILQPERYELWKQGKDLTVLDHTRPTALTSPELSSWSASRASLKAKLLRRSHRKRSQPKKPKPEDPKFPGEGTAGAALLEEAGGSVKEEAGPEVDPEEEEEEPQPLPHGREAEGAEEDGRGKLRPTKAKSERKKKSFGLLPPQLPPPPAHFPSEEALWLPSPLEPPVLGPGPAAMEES
The experiment in a line: Histone lysine demethylase AlphaLISA assay, KDM4B. As to conditions: read-out: KDM4B HDME Inhibition IC50. It counts as biochemical. The method, then:
Assays are performed analogously to the protocol described by PerkinElmer (Roy et al. PerkinElmer Technical Note: AlphaLISA #12, April 2011)
Enzymes are dissolved in enzyme buffer and incubated for 10 min before being added to 3% DMSO solutions of compounds in enzyme buffer. Incubated for another 10 minutes, before substrate solution is added and the reaction mixture is incubated at room temperature. 10 μL acceptor beads, suspended in Epigenetic Buffer (Perkin Elmer AL008) from stock, are added and the suspension is incubated in the dark at room temperature, before a suspension of streptavidin donor beads (Perkin Elmer 6760002) in Epigenetic Buffer is added. After incubation at room temperature in the dark the plates are read.
BK9M3: Biotin-ARTKQTAR(KMe3)STGGKAPRKQ-NH2 (Caslo, Denmark) […]
Substrate Solution: Substrate, 25 μM L-Asc, and 10 μM α-KG in Buffer A.
(Alpha assays give light when donor and acceptor beads are brought close together.)

A further assay addresses KDM6A (UTX) (Homo sapiens, UniProt O15550). Nature of the assay: Histone lysine demethylase AlphaLISA assay, KDM6A. It counts as biochemical. As to conditions: read-out: KDM6A HDME Inhibition IC50. The gist of the method:
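Each enzyme was pre-incubated 10 min in buffer, then 10 min with compound in 3% DMSO solution. The reaction started with biotinylated histone H3 peptide substrate plus 25 μM L-ascorbate and 10 μM α-KG at room temperature. Detection used AlphaLISA acceptor beads, then streptavidin donor beads, in the dark.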

The next assay deals with MCF7 cells. Nature of the assay: Cell proliferation assay MCF7. It counts as cell-based. The conditions noted are these: MCF7 human breast cancer cells; 120 hours; ATPlite 1 Step. Summed up:
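Cells grown 24 h in DMEM GlutaMAX/10% FBS, then exposed to compounds in duplicate (≤0.5% DMSO) for 120 h. Viability read as ATP luminescence (ATPlite 1 Step). Seeding set to reach ~90% confluence at harvest.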
Background: In ATP-based viability assays light output follows the ATP content of the culture.

Sequence of KDM6A (UTX) (O15550 919-1401): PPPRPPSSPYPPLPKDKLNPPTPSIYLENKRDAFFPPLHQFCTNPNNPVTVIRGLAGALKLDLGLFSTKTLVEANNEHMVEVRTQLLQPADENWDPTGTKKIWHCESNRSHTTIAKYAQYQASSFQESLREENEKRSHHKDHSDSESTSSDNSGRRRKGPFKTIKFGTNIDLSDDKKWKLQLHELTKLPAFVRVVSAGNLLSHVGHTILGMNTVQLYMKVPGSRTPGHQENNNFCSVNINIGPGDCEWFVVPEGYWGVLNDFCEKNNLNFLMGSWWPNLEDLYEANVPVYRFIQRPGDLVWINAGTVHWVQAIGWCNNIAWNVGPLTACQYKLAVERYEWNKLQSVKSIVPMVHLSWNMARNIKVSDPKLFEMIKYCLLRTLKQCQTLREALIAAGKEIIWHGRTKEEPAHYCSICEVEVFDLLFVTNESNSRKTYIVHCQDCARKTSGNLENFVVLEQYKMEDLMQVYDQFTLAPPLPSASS

Take `CCN1CCCC1CNC(=O)CNCc1cc(C=O)ccn1` (centres unmarked) [Compound 104, N-[(1-ethylpyrrolidin-2-yl)methyl]-2-{[(4-formylpyridin-2-yl)methyl]amino}-acetamide]: the IC50 (usually the point on the concentration scale where inhibition reaches its midpoint) was below 250 nM at KDM4B (JMJD2B) and above 2500 nM on KDM6A (UTX).

Turning to `CC(C)C[C@H](NCc1cc(/C=N/CCO)ccn1)C(=O)N1CCCCC1` [Compound 95, (2S)-2-[({4-[[(2-hydroxyethyl)imino]-methyl]pyridin-2-yl}methyl)amino]-4-methyl-1-(piperidin-1-yl)pentan-1-one], the concentration for half-maximal inhibition (IC50) at KDM6A (UTX) is above 2500 nM. Also, in the assay with MCF7 cells, the EC50 (in general, the midpoint of the concentration-response curve) was above 2500 nM.

Regarding `CCN(CC)CCCCNC(=O)CNCc1cc(/C=N/C2CC2)ccn1` [Compound 48, 2-[({4-[N-cyclopropyl-carboximidoyl]pyridin-2-yl}methyl)amino]-N-[4-(diethylamino)-butyl]acetamide], the IC50 at KDM4B (JMJD2B) was below 250 nM; at KDM6A (UTX) it was above 2500 nM. The like results for `CCSCCNCc1cc(/C=N/C2CC2)ccn1` [Compound 39, N-{[2-({[2-(ethylsulfanyl)-ethyl]amino}methyl)pyridin-4-yl]methylidene}-cyclopropanamine] were, in that order, below 250 nM and above 2500 nM. For the compound `CN(C)CCCCCNCc1cc(/C=N/C2CC2)ccn1` [Compound 47, N-{[2-({[5-(dimethylamino)-pentyl]amino}-methyl)pyridin-4-yl]methylidene}-cyclopropanamine], the IC50 at KDM4B (JMJD2B) was 250 to 2500 nM; at KDM6A (UTX), above 2500 nM. The like results for `CNCc1ccnc(CNCCCN(C)Cc2ccccc2)c1` [Compound 17, benzyl(methyl){3-[({4-[(methylamino)methyl]-pyridin-2-yl)methyl)-amino]propyl}-amine] were, in that order, 250 to 2500 nM and above 2500 nM. Turning to `CCCNCc1cc(CNC2CC2)ccn1` [Compound 12, N-({2-[(propylamino)methyl]-pyridin-4-yl}methyl)-cyclopropanamine], the results for the IC50 at KDM4B (JMJD2B) and on KDM6A (UTX) were below 250 nM and above 2500 nM, respectively. Consider `CCN(CC)C(=O)CNCc1cc(C=O)ccn1` [Compound 105, N,N-diethyl-2-{[(4-formylpyridin-2-yl)methyl]amino}-acetamide], for which the IC50 at KDM4B (JMJD2B) was below 250 nM; at KDM6A (UTX), above 2500 nM. On the same counts, the results for `CCN(CCC#N)C(=O)CNCc1cc(/C=N/C2CC2)ccn1` [Compound 50, N-(2-cyanoethyl)-2-[({4-[N-cyclopropyl-carboximidoyl]-pyridin-2-yl}methyl)amino]-N-ethylacetamide] are below 250 nM and above 2500 nM.

Consider `CN(C)CCNCc1ccnc(CNCC(=O)N(C)C)c1` [Compound 15, 2-({[4-({[2-(dimethylamino)ethyl]-amino}methyl)pyridin-2-yl]methyl}amino)-N,N-dimethylacetamide], for which the results for the IC50 at KDM4B (JMJD2B) and at KDM6A (UTX) were 250 to 2500 nM and above 2500 nM, respectively. For the compound `CN(C)CCCCNCc1cc(C=O)ccn1` [Compound 108, 2-({[4-(dimethylamino)-butyl]amino}methyl)-pyridine-4-carbaldehyde], the IC50 on KDM6A (UTX) was above 2500 nM. Take `O=C(CNCc1cc(/C=N/C2CC2)ccn1)N1CCC(Cc2ccccc2)CC1` [Compound 55, 1-(4-benzylpiperidin-1-yl)-2-[({4-[N-cyclopropyl-carboximidoyl]-pyridin-2-yl}methyl)amino]-ethan-1-one]: the IC50 was below 250 nM on KDM4B (JMJD2B) and above 2500 nM on KDM6A (UTX).

Regarding `CC1CC1/N=C/c1ccnc(CNCC(=O)N(C)C)c1` (centres unmarked) [Compound 35, N,N-dimethyl-2-[({4-[N-(2-methylcyclopropyl)-carboximidoyl]pyridin-2-yl}methyl)amino]-acetamide], the IC50 on KDM4B (JMJD2B) is below 250 nM; at KDM6A (UTX), above 2500 nM. The like results for `O=C(CNCc1cc(/C=N/C2CC2)ccn1)NC1CCN(Cc2ccccc2)C1` (centres unmarked) [Compound 53, N-(1-benzylpyrrolidin-3-yl)-2-[({4-[N-cyclopropyl-carboximidoyl]pyridin-2-yl}methyl)amino]-acetamide] were, in that order, below 250 nM and above 2500 nM.

`CC1CCCCN1CCCNCc1cc(CNC2CC2)ccn1` (centres unmarked) [Compound 11, N-{[2-({[3-(2-methylpiperidin-1-yl)propyl]amino}methyl)-pyridin-4-yl]methyl}-cyclopropanamine]: the IC50 on KDM4B (JMJD2B) and on KDM6A (UTX) was above 2500 nM throughout.

`CN(C)CCNCc1cc(CNC(C#N)C2CC2)ccn1` (centres unmarked) [Compound 21, 2-cyclopropyl-2-({[2-({[2-(dimethylamino)ethyl]-amino}methyl)pyridin-4-yl]methyl}amino)-acetonitrile]: the IC50 on KDM4B (JMJD2B) and at KDM6A (UTX) was above 2500 nM throughout.

With `OCC/N=C/c1ccnc(CNCCc2ccccc2OCc2ccccc2)c1` [Compound 93, 2-[({2-[({2-[2-(benzyloxy)phenyl]-ethyl}amino)methyl]-pyridin-4-yl}methylidene)-amino]ethan-1-ol], on KDM6A (UTX), the IC50 was above 2500 nM. In the assay with MCF7 cells, this compound displayed an EC50 above 2500 nM. For `CN(C)C(=O)CNCc1cc(CNCCF)ccn1` [Compound 14, 2-{[(4-{[(2-fluoroethyl)amino]-methyl}pyridin-2-yl)methyl]amino}-N,N-dimethylacetamide], the IC50 is 250 to 2500 nM at KDM4B (JMJD2B) and above 2500 nM at KDM6A (UTX).

For `CN1CCN(C(=O)CNCc2cc(/C=N/C3CC3)ccn2)CC1` [Compound 54, 2-[({4-[N-cyclopropyl-carboximidoyl]-pyridin-2-yl}methyl)amino]-1-(4-methylpiperazin-1-yl)ethan-1-one], the IC50 at KDM4B (JMJD2B) was 250 to 2500 nM; at KDM6A (UTX), above 2500 nM.

`CN(Cc1ccccc1F)C(=O)CNCc1cc(/C=N/CCO)ccn1` [Compound 92, N-[(2-fluorophenyl)methyl]-2-[({4-[[(2-hydroxyethyl)imino]-methyl]pyridin-2-yl}methyl)amino]-N-methylacetamide]: the IC50 at KDM6A (UTX) was above 2500 nM. Moreover, the half-maximal effective concentration (EC50) with MCF7 cells was above 2500 nM. Turning to `CCN1CCCC1CNC(=O)CNCc1cc(/C=N/C2CC2)ccn1` (centres unmarked) [Compound 51, 2-[({4-[N-cyclopropyl-carboximidoyl]-pyridin-2-yl}methyl)-amino]-N-[(1-ethylpyrrolidin-2-yl)methyl]acetamide], the 50% inhibitory concentration (IC50) at KDM4B (JMJD2B) was below 250 nM; at KDM6A (UTX), above 2500 nM.

Consider `CN(CCCn1cccn1)C(=O)CNCc1cc(/C=N/C2CC2)ccn1` [Compound 52, 2-[({4-[N-cyclopropyl-carboximidoyl]-pyridin-2-yl}methyl)amino]-N-methyl-N-[3-(1H-pyrazol-1-yl)propyl]acetamide], for which the figures for the IC50 at KDM4B (JMJD2B) and at KDM6A (UTX) were below 250 nM and above 2500 nM, respectively.

With `O=C(CNCc1cc(/C=N/C2CC2)ccn1)N1CCC[C@@H]1CN1CCCC1` [Compound 49, 2-[({4-[N-cyclopropyl-carboximidoyl]pyridin-2-yl}methyl)amino]-1-[(2R)-2-(pyrrolidin-1-ylmethyl)pyrrolidin-1-yl]ethan-1-one], the results for the IC50 at KDM4B (JMJD2B) and on KDM6A (UTX) were below 250 nM and above 2500 nM, respectively.

For the compound `c1ccc(CN2CCC[C@H]2CNCc2cc(CNCC3CC3)ccn2)cc1` [Compound 16, {[(2S)-1-benzylpyrrolidin-2-yl]methyl}[(4-{[(cyclopropylmethyl)-amino]methyl}pyridin-2-yl)methyl]amine], the IC50 on KDM4B (JMJD2B) and at KDM6A (UTX) was above 2500 nM each time.

For the compound `CN(C)CCNCc1cc(C=O)ccn1` [Compound 110, 2-({[2-(dimethylamino)-ethyl]amino}methyl)-pyridine-4-carbaldehyde], the IC50 at KDM6A (UTX) was above 2500 nM.

As to `CCN(CC)CCCCNC(=O)CNCc1cc(C=O)ccn1` [Compound 112, N-[4-(diethylamino)-butyl]-2-{[(4-formylpyridin-2-yl)methyl]amino}-acetamide], the IC50 on KDM6A (UTX) was above 2500 nM.

On to `CN(CC(=O)N1CCCCC1)Cc1cc(C=O)ccn1` [Compound 120, 2-({methyl[2-oxo-2-(piperidin-1-yl)ethyl]amino}-methyl)pyridine-4-carbaldehyde], for which the IC50 on KDM6A (UTX) was above 2500 nM.

On to `CCN(CCC#N)C(=O)CNCc1cc(/C=N/CCO)ccn1` [Compound 94, N-(2-cyanoethyl)-N-ethyl-2-[({4-[[(2-hydroxyethyl)imino]-methyl]pyridin-2-yl}methyl)amino]-acetamide], for which, on KDM6A (UTX), the IC50 is above 2500 nM. The compound further showed an EC50 with MCF7 cells above 2500 nM. Take `CN(C)CCCCCNCc1cc(C=O)ccn1` [Compound 114, 2-({[5-(dimethylamino)-pentyl]amino}methyl)-pyridine-4-carbaldehyde]: on KDM4B (JMJD2B), the IC50 was in the range of 250 to 2500 nM.
